# Patent US20240067693A1, “POLYPEPTIDES AND USES THEREOF” (MEDIMMUNE LIMITED, priority 2020, published 2024)
# Numbered stars: 1 amine (or outer) side, 2 acyl side, 3 side chain; on linkers, the order of the positions; unused ones are H or OH. Bridge positions count the residues as written; N and C are the ends. Side chains are listed from the residue outwards. Peptide text beside a SMILES is read from it. * marks the point of attachment. C20 diacid = O=C(O)CCCCCCCCCCCCCCCCCCC(=O)*; C18 diacid = O=C(O)CCCCCCCCCCCCCCCCC(=O)*; γGlu = O=C(O)[C@H](CCC(=O)[*:2])N[*:1]
# How the values were obtained:
# [1] = target: T1, human calcitonin receptor (hCTR) (Homo sapiens, UniProt P30988); test: cAMP production in 1321N1 cells with stable recombinant expression of human calcitonin receptor (hCTR); assay type: cell-based; conditions: cAMP, 1321N1 cells, assay buffer with 0.1% BSA; read-out: EC50 (pM) hCTR
# T1 construct: expressed in transfected cells
# T1 sequence (P30988 25-474): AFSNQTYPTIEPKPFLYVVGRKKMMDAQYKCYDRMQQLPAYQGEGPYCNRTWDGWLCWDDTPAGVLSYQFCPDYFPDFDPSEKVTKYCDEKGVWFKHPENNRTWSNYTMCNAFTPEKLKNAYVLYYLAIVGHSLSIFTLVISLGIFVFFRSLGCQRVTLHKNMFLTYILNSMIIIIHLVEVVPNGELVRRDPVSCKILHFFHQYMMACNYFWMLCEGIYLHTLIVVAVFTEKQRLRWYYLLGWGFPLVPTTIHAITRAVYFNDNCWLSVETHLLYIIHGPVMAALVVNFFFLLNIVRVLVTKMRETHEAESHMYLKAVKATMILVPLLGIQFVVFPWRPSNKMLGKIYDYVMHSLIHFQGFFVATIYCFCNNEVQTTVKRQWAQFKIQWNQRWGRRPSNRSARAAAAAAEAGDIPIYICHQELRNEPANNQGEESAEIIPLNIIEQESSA
# Method in brief: (§1)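 Receptor-expressing cells (human receptors in 1321N1, rat receptors in HEK) incubated 30 min at room temperature with peptide in HBSS/HEPES pH 7.4, 0.1% BSA, 0.5 mM IBMX. cAMP read by HTRF; EC50 from 4-parameter fit as % of maximal amylin or calcitonin response.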
# [2] = target: T2, human amylin receptor (calcitonin receptor co-expressed with receptor activity modifying protein, RAMP3) (hAMYR3) (Homo sapiens, UniProt O60896+P30988); test: cAMP production in 1321N1 cells with stable recombinant expression of human amylin receptor (hAMYR3); assay type: cell-based; conditions: for Ratio (selectivity hAMYR vs hCTR, ratio of EC50 values at the two receptors): EC50 hCTR / EC50 hAMYR3; for EC50: cAMP, 1321N1 cells, assay buffer with 0.1% BSA, read-out: EC50 (pM) hAMYR3
# T2 construct: expressed in transfected cells
# T2 sequence (P30988 25-474): T1 sequence (P30988 25-474)
# T2 sequence (O60896 24-148 partner): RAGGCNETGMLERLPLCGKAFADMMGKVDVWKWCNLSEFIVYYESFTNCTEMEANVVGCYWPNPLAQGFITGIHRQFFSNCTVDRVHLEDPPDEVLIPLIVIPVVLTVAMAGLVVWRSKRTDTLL
# Method in brief: as §1
Compound,EC50 [1] [pM],"Ratio (selectivity hAMYR vs hCTR, ratio of EC50 values at the two receptors) [2]",EC50 [2] [pM]
CC[C@H](C)[C@H](NC(=O)[C@@H]1CCCN1C(=O)CNC(=O)[C@H](Cc1ccccc1)NC(=O)[C@H](Cc1c[nH]cn1)NC(=O)[C@H](CC(N)=O)NC(=O)[C@H](CO)NC(=O)[C@H](CO)NC(=O)[C@H](Cc1c[nH]cn1)NC(=O)[C@@H](NC(=O)[C@H](CC(C)C)NC(=O)[C@H](Cc1ccccc1)NC(=O)[C@H](CC(N)=O)NC(=O)[C@H](C)NC(=O)[C@H](CC(C)C)NC(=O)[C@H](CCCNC(=N)N)NC(=O)[C@H](CCC(N)=O)NC(=O)[C@@H](NC(=O)[C@H](C)NC(=O)[C@@H]1CSSC[C@H](NC(=O)[C@H](CCCCN)NC(=O)[C@@H](N)CCCCNC(=O)CC[C@H](NC(=O)CCCCCCCCCCCCCCCCC(=O)O)C(=O)O)C(=O)N[C@@H](CC(N)=O)C(=O)N[C@@H]([C@@H](C)O)C(=O)N[C@@H](C)C(=O)N[C@@H]([C@@H](C)O)C(=O)N1)[C@@H](C)O)C(C)C)C(=O)N[C@@H](CC(C)C)C(=O)N1CCC[C@H]1C(=O)N1CCC[C@H]1C(=O)N[C@H](C(=O)N[C@@H](CC(N)=O)C(=O)N[C@H](C(=O)NCC(=O)N[C@@H](CO)C(=O)N[C@@H](CCC(=O)O)C(=O)N[C@H](C(=O)N[C@@H](Cc1ccc(O)cc1)C(N)=O)[C@@H](C)O)C(C)C)[C@@H](C)O [Peptide 111] (H-K([γGlu-C18 diacid])KCNTATCATQRLANFLVHSSNHFGPILPPTNVGSETY-NH2; disulfide 3-8; N-terminus assumed),1880,5,403
CC[C@H](C)[C@H](NC(=O)[C@H](CO)NC(=O)[C@H](Cc1c[nH]cn1)NC(=O)[C@@H](NC(=O)[C@H](CC(C)C)NC(=O)[C@H](Cc1ccccc1)NC(=O)[C@H](CC(N)=O)NC(=O)[C@H](C)NC(=O)[C@H](CC(C)C)NC(=O)[C@H](CCCNC(=N)N)NC(=O)[C@H](CCC(N)=O)NC(=O)[C@@H](NC(=O)[C@H](C)NC(=O)[C@@H]1CSSC[C@H](NC(=O)[C@@H](N)CCCCNC(=O)CC[C@H](NC(=O)CC[C@H](NC(=O)CCCCCCCCCCCCCCCCCCC(=O)O)C(=O)O)C(=O)O)C(=O)N[C@@H](CC(N)=O)C(=O)N[C@@H]([C@@H](C)CC)C(=O)N[C@@H](C)C(=O)N[C@@H]([C@@H](C)O)C(=O)N1)[C@@H](C)O)C(C)C)C(=O)N[C@@H](C)C(=O)N[C@@H](CC(N)=O)C(=O)N[C@@H](Cc1ccccc1)C(=O)NCC(=O)N1CCC[C@H]1C(=O)N[C@H](C(=O)N[C@@H](CC(C)C)C(=O)N1CCC[C@H]1C(=O)N1CCC[C@H]1C(=O)N[C@H](C(=O)N[C@@H](CC(N)=O)C(=O)N[C@H](C(=O)NCC(=O)N[C@@H](CO)C(=O)N[C@@H](CCCNC(=N)N)C(=O)N[C@H](C(=O)N[C@@H](Cc1ccc(O)cc1)C(N)=O)[C@@H](C)O)C(C)C)[C@@H](C)O)[C@@H](C)CC [Peptide 118] (H-K([γGlu-γGlu-C20 diacid])CNIATCATQRLANFLVHSIANFGPILPPTNVGSRTY-NH2; disulfide 2-7; N-terminus assumed),792,2,417
